# Test results reported in patent US20240174714A1, “TREATMENT OF SKIN DISORDERS” (priority 2021, published 2024).
# Like-named read-outs stand apart in the source and are kept apart here. Square brackets hold non-standard residues; d marks the D form. Peptide text beside a SMILES is read from it. * marks the point of attachment. Ala(thiazol-2-yl) = N[C@@H](Cc1nccs1)C(=O)O; NH(1-CH2NMe2-cBu) = CN(C)CC1(N*)CCC1; dGly(nOct) = CCCCCCCC[C@@H](N)C(=O)O; Gly(octyl) = CCCCCCCC[C@H](N)C(=O)O; Oxazole4CO(2-Me) = Cc1nc(C(=O)*)co1; d(hCha) = N[C@H](CCC1CCCCC1)C(=O)O; Benzoyl(4-F) = O=C(c1ccc(F)cc1)*; hCha = N[C@@H](CCC1CCCCC1)C(=O)O; Aoc(2) = CCCCCC[C@H](N)C(=O)O; NHCH2CH2NHMe = CNCCN*; Aib = CC(C)(N)C(=O)O; X1 = COCCN(CCN*)CCOC; βAla = NCCC(=O)O; tBu = CC(C)(C)*
# How the values were obtained:
# [1] = test system: intracellular Leishmania donovani MHOM-ET-67/L82 amastigotes; test: In vitro antiprotozoal assay, intracellular amastigotes; type: cell-based; conditions: intracellular amastigotes; read-out: L.don.InMac IC50
# Method: (§1) The testing of the inventive compounds against Leishmania donovani (strain MHOM/ET/67/L82) was performed in 96 well plates at concentrations in serial dilutions. Tests were done in triplicate.
# [2] = test system: axenic Leishmania donovani MHOM-ET-67/L82 amastigotes; test: In vitro antiprotozoal assay, axenic amastigotes; type: cell-based
# Method: as §1
# [3] = Cytotoxicity assay (Alamar Blue) on L6-cells; type: cell-based, rat
# Method: Tests were done in triplicate.
# The plates were incubated for additional 2 h.
# [4] = test system: Staphylococcus aureus ATCC BAA-1556, USA300 MRSA; test: microbe, parasite or virus in culture; type: cell-based; conditions: ATCC BAA-1556
# Method: Pre-formulated compound solution was diluted in 100% DMSO to prepare a 1.6 mg/mL working stock solution. […] The concentration range was 0.032 to 32 μg/mL.
# [5] = test system: Staphylococcus aureus ATCC 43300, MRSA; type: cell-based; conditions: ATCC 43300, 18 h
# Method: The antibacterial activity of inventive compounds was evaluated in duplicate in a further Minimum Inhibitory Concentration (MIC) assay.
# Bacteria were cultured in Cation-adjusted Mueller Hinton broth (CAMHB) at 37° C. overnight. A sample of each culture was then diluted 40-fold in fresh broth and incubated at 37° C. for 1.5-3 h. The resultant mid-log phase cultures were diluted (CFU/mL measured by OD600), then added to each well of the compound containing plates, giving a cell density of 5×10^5 CFU/mL and a total volume of 50 μL. All the plates were covered and incubated at 37° C. for 18 h without shaking.
# Samples were prepared in DMSO and serially diluted 2 fold 8 times. Each sample concentration was prepared in 384-well plates, non-binding surface plate (NBS; Corning 3640) for the bacterial strain ATCC 43300, MRSA. The final DMSO concentration was at a maximum of 0.5%.
# Inhibition of bacterial growth was determined measuring absorbance at 600 nm (OD600), using a Tecan M1000 Pro monochromator plate reader. The percentage of growth inhibition was calculated for each well, using the negative control (media only) and positive control (bacteria without inhibitors) on the same plate as references. […] Vancomycin was used as positive bacterial inhibitor standards.
# [6] = axenic amastigotes, read-out: L.don.ax. IC50
Compound,IC50 [1] [nM],"IC50 [2, 6] [nM]",IC50 at 68 h ([3]; rat) [nM],MIC [4] [µg/mL],IC50 [2] [nM],"IC50 at 68 h ([3]; rat myoblast L6 cells, read-out: Cytotox L6 IC50) [nM]",MIC [5] [µg/mL]
"Cc1nc(C(=O)N2CCC[C@H]2C(=O)N[C@@H](COC(C)(C)C)C(=O)N[C@@H](CC(C)C)C(=O)NC(C)(C)C(=O)N[C@@H](CC(C)C)C(=O)N[C@@H](CC(C)C)C(=O)NC(C)(C)C(=O)NC(C)(C)C(=O)NCCC(=O)NC2(CN(C)C)CCC2)co1 [Compound 6780, (2S)-2-[(2S)-2-{2-[(2S)-2-[(2S)-3-(tert-butoxy)-2-{[(2S)-1-(2-methyl-1,3-oxazole-4-carbonyl)pyrrolidin-2-yl]formamido}propanamido]-4-methylpentanamido]-2-methylpropanamido}-4-methylpentanamido]-N-{1-[(1-{[2-({1-[(dimethylamino)methyl]cyclobutyl}carbamoyl)ethyl]carbamoyl}-1-methylethyl)carbamoyl]-1-methylethyl}-4-methylpentanamide] ({Oxazole4CO(2-Me)}-PS(tBu)L[Aib]LL[Aib][Aib][βAla]-{NH(1-CH2NMe2-cBu)})",997,166,8750,,,,
"CCCCCCCC[C@@H](NC(=O)[C@@H]1CCCN1C(=O)c1coc(C)n1)C(=O)N[C@@H](CC(C)C)C(=O)NC(C)(C)C(=O)N[C@@H](CC(C)C)C(=O)N[C@@H](CC(C)C)C(=O)NC(C)(C)C(=O)NC(C)(C)C(=O)NCCC(=O)NC1(CN(C)C)CCC1 [Compound 6789, (2R)-N-[(1S)-1-[(1-{[(1S)-1-{[(1S)-1-({1-[(1-{[2-({1-[(dimethylamino)methyl]cyclobutyl}carbamoyl)ethyl]carbamoyl}-1-methylethyl)carbamoyl]-1-methylethyl}carbamoyl)-3-methylbutyl]carbamoyl}-3-methylbutyl]carbamoyl}-1-methylethyl)carbamoyl]-3-methylbutyl]-2-{[(2S)-1-(2-methyl-1,3-oxazole-4-carbonyl)pyrrolidin-2-yl]formamido}decanamide] ({Oxazole4CO(2-Me)}-P[dGly(nOct)]L[Aib]LL[Aib][Aib][βAla]-{NH(1-CH2NMe2-cBu)})",65,3.4,4280,16,,,
"COCCN(CCNC(=O)CCNC(=O)C(C)(C)NC(=O)C(C)(C)NC(=O)[C@H](CC(C)C)NC(=O)[C@H](CC(C)C)NC(=O)C(C)(C)NC(=O)[C@H](CC(C)C)NC(=O)[C@H](CCC1CCCCC1)NC(=O)[C@@H]1CCCN1C(=O)c1coc(C)n1)CCOC [Compound 6791, (2S)-N-(1-{[(1S)-1-{[(1S)-1-({1-[(1-{[2-({2-[bis(2-methoxyethyl)amino]ethyl}carbamoyl)ethyl]carbamoyl}-1-methylethyl)carbamoyl]-1-methylethyl}carbamoyl)-3-methylbutyl]carbamoyl}-3-methylbutyl]carbamoyl}-1-methylethyl)-2-[(2S)-4-cyclohexyl-2-{[(2S)-1-(2-methyl-1,3-oxazole-4-carbonyl)pyrrolidin-2-yl]formamido}butanamido]-4-methylpentanamide] ({Oxazole4CO(2-Me)}-P[hCha]L[Aib]LL[Aib][Aib][βAla]-X1)",179,2.1,8230,32,,,
"CCCCCC[C@H](NC(=O)[C@@H]1CCCN1C(=O)c1coc(C)n1)C(=O)N[C@@H](CC(C)C)C(=O)NC(C)(C)C(=O)N[C@@H](CC(C)C)C(=O)N[C@@H](CC(C)C)C(=O)NC(C)(C)C(=O)NC(C)(C)C(=O)NCCC(=O)NC1(CN(C)C)CCC1 [Compound 6894, (2S)—N-[(1S)-1-[(1-{[(1S)-1-{[(1S)-1-({1-[(1-{[2-({1-[(dimethylamino)methyl]cyclobutyl}carbamoyl)ethyl]carbamoyl}-1-methylethyl)carbamoyl]-1-methylethyl}carbamoyl)-3-methylbutyl]carbamoyl}-3-methylbutyl]carbamoyl}-1-methylethyl)carbamoyl]-3-methylbutyl]-2-{[(2S)-1-(2-methyl-1,3-oxazole-4-carbonyl)pyrrolidin-2-yl]formamido}octanamide] ({Oxazole4CO(2-Me)}-P[Aoc(2)]L[Aib]LL[Aib][Aib][βAla]-{NH(1-CH2NMe2-cBu)})",383,20.6,4740,,,,
"COc1ccc(C[C@H](NC(=O)[C@@H]2CCCN2C(=O)c2coc(C)n2)C(=O)N[C@@H](CC(C)C)C(=O)NC(C)(C)C(=O)N[C@@H](CC(C)C)C(=O)N[C@@H](CC(C)C)C(=O)NC(C)(C)C(=O)NC(C)(C)C(=O)NCCC(=O)NC2(CN(C)C)CCC2)cc1 [Compound 6896, (2S)-N-(1-{[(1S)-1-{[(1S)-1-({1-[(1-{[2-({1-[(dimethylamino)methyl]cyclobutyl}carbamoyl)ethyl]carbamoyl}-1-methylethyl)carbamoyl]-1-methylethyl}carbamoyl)-3-methylbutyl]carbamoyl}-3-methylbutyl]carbamoyl}-1-methylethyl)-2-[(2S)-3-(4-methoxyphenyl)-2-{[(2S)-1-(2-methyl-1,3-oxazole-4-carbonyl)pyrrolidin-2-yl]formamido}propanamido]-4-methylpentanamide] ({Oxazole4CO(2-Me)}-PY(Me)L[Aib]LL[Aib][Aib][βAla]-{NH(1-CH2NMe2-cBu)})",1640,,,,236,8490,
"Cc1nc(C(=O)N2CCC[C@@H]2C(=O)N[C@H](CCC2CCCCC2)C(=O)N[C@H](CC(C)C)C(=O)NC(C)(C)C(=O)N[C@H](CC(C)C)C(=O)N[C@H](CC(C)C)C(=O)NC(C)(C)C(=O)NC(C)(C)C(=O)NCCC(=O)NC2(CN(C)C)CCC2)co1 [Compound 7050, (2R)-2-[(2R)-4-cyclohexyl-2-{[(2R)-1-(2-methyl-1,3-oxazole-4-carbonyl)pyrrolidin-2-yl]formamido}butanamido]-N-(1-{[(1R)-1-{[(1R)-1-({1-[(1-{[2-({1-[(dimethylamino)methyl]cyclobutyl}carbamoyl)ethyl]carbamoyl}-1-methylethyl)carbamoyl]-1-methylethyl}carbamoyl)-3-methylbutyl]carbamoyl}-3-methylbutyl]carbamoyl}-1-methylethyl)-4-methylpentanamide] ({Oxazole4CO(2-Me)}-[dP][d(hCha)][dL][Aib][dL][dL][Aib][Aib][βAla]-{NH(1-CH2NMe2-cBu)})",43.7,5.1,4970,,,,
"CCCCCCCC[C@H](NC(=O)[C@@H]1CCCN1C(=O)c1coc(C)n1)C(=O)N[C@@H](CC(C)C)C(=O)NC(C)(C)C(=O)N[C@@H](CC(C)C)C(=O)N[C@@H](CC(C)C)C(=O)NC(C)(C)C(=O)NC(C)(C)C(=O)NCCC(=O)NCCNC [Compound 7058, (2S)-2-{[(2S)-1-(2-methyl-1,3-oxazole-4-carbonyl)pyrrolidin-2-yl]formamido}-N-[(1S)-3-methyl-1-[(1-methyl-1-{[(1S)-3-methyl-1-{[(1S)-3-methyl-1-{[1-methyl-1-({1-methyl-1-[(2-{[2-(methylamino)ethyl]carbamoyl}ethyl)carbamoyl]ethyl}carbamoyl)ethyl]carbamoyl}butyl]carbamoyl}butyl]carbamoyl}ethyl)carbamoyl]butyl]decanamide] ({Oxazole4CO(2-Me)}-P[Gly(octyl)]L[Aib]LL[Aib][Aib][βAla]-NHCH2CH2NHMe)",2620,23.8,5040,4,,,
"CC(C)C[C@H](NC(=O)[C@H](Cc1nccs1)NC(=O)[C@@H]1CCCN1C(=O)c1ccc(F)cc1)C(=O)NC(C)(C)C(=O)N[C@@H](CC(C)C)C(=O)N[C@@H](CC(C)C)C(=O)NC(C)(C)C(=O)NC(C)(C)C(=O)NCCC(=O)NC1(CN(C)C)CCC1 [Compound 7842, (2S)-N-(1-{[(1S)-1-{[(1S)-1-({1-[(1-{[2-({1-[(dimethylamino)methyl]cyclobutyl}carbamoyl)ethyl]carbamoyl}-1-methylethyl)carbamoyl]-1-methylethyl}carbamoyl)-3-methylbutyl]carbamoyl}-3-methylbutyl]carbamoyl}-1-methylethyl)-2-[(2S)-2-{[(2S)-1-(4-fluorobenzoyl)pyrrolidin-2-yl]formamido}-3-(1,3-thiazol-2-yl)propanamido]-4-methylpentanamide] ({Benzoyl(4-F)}-P[Ala(thiazol-2-yl)]L[Aib]LL[Aib][Aib][βAla]-{NH(1-CH2NMe2-cBu)})",,,,,,,32
